In patent publication US8637499B2, “Benzoxazepines as inhibitors of PI3K/mTOR and methods of their use and manufacture” (Exelixis, Inc., priority 2009, dated 2014):
pIC50: −log10 of the molar value.

Tests used:
PI3Kα = PI3Kα (Homo sapiens, UniProt P42336); assay: PI3K Biochemical Assays (ATP consumption, luciferase-luciferin chemiluminescence); details: PI3Kα 1.5 nM, ATP 1 μM, PIP2 10 μM; percent of ATP consumed
Summary of the method: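 Kinase activity read as percent ATP consumed via luciferase-luciferin chemiluminescence. 1.5 nM enzyme, 1 μM ATP, 10 μM PIP2 in 50 mM Tris pH 7.5, 1 mM EGTA, 10 mM MgCl2, 1 mM DTT, 0.03% CHAPS; ~2 h at ambient temperature, ATP consumption kept to 40-60%.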

mTORC1 (mTOR/GbL/Raptor) = mTORC1 (mTOR/GbL/Raptor) (Homo sapiens, UniProt P42345); assay: mTOR/GbL/Raptor (mTORC1) ELISA Assay; assay type: biochemical; details: 0.2 nM mTORC1, 10 μM ATP, 50 nM NHis-tagged 4E-BP1; phosphorylation of 4E-BP1; read-out: IC50
Summary of the method: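 mTORC1 (0.2 nM) phosphorylated NHis-tagged 4E-BP1 (50 nM) with 10 μM ATP in 20 mM Hepes pH 7.2, 10 mM MnCl2, for 120 min at ambient temperature. Product was captured on Ni-chelate plates and detected with anti-phospho-4E-BP1 plus HRP secondary antibody by chemiluminescence.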

Chain of PI3Kα (P42336 whole entry): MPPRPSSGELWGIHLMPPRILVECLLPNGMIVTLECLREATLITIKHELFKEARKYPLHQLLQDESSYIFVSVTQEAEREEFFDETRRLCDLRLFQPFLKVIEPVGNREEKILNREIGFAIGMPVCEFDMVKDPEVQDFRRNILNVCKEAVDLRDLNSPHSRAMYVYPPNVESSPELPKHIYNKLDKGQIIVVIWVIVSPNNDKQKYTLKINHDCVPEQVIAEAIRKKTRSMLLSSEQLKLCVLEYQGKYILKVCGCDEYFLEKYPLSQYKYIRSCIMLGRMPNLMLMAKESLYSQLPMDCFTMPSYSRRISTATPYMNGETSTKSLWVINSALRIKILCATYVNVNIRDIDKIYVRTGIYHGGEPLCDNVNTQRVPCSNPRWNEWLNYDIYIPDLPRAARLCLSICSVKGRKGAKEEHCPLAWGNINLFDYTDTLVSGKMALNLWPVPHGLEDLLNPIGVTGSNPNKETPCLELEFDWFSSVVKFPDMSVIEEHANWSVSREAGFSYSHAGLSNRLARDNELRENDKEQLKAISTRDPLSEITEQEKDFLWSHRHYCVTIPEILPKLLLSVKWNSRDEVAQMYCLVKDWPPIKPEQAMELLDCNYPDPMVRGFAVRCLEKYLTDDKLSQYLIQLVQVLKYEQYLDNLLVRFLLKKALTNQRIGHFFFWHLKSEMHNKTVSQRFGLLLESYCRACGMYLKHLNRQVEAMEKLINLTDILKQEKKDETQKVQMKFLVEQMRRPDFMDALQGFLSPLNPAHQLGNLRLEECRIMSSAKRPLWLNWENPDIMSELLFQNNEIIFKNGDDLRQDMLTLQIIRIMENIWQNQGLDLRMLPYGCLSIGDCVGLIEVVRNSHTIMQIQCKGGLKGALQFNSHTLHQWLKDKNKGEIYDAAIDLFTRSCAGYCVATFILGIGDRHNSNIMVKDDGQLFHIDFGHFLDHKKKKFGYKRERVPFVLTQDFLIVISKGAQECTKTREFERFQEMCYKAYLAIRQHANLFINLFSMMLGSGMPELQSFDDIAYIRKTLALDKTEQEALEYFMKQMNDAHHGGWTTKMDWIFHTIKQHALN
Chain of PI3Kα (P27986 whole entry partner): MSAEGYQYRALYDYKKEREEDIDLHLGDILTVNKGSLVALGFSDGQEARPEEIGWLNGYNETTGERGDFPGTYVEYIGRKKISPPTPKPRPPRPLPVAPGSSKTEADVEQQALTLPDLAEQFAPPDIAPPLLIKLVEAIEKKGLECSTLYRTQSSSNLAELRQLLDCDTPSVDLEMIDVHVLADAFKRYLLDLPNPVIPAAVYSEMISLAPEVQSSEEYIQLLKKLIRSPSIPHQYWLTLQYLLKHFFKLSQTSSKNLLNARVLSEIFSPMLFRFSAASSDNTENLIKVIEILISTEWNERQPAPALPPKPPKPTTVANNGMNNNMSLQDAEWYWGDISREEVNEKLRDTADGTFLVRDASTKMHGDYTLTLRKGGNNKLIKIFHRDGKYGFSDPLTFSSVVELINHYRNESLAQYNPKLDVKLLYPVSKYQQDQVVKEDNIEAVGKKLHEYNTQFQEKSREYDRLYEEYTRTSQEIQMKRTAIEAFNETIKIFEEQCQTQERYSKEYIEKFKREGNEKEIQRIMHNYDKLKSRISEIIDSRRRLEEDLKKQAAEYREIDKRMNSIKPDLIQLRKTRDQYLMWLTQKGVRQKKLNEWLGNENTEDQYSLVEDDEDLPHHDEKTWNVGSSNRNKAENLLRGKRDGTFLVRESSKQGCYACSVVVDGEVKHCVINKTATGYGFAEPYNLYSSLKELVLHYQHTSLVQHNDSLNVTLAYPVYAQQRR

| Structure (SMILES) | pIC50 (PI3Kα) | pIC50 (mTORC1 (mTOR/GbL/Raptor)) |
| --- | --- | --- |
| CC1CCN(C(=O)N2CCOc3ccc(-c4ccc(-c5ncc[nH]5)cc4)cc3C2)CC1 [Compound 60, 7-[4-(1H-imidazol-2-yl)phenyl]-4-[(4-methylpiperidin-1-yl)carbonyl]-2,3,4,5-tetrahydro-1,4-benzoxazepine] | ≥ 7.12 | ≥ 7.30 |
| N#CC1CCN(C(=O)N2CCOc3ccc(-c4ccc(-c5ncc[nH]5)cc4)cc3C2)CC1 [Compound 61, 1-({7-[4-(1H-imidazol-2-yl)phenyl]-2,3-dihydro-1,4-benzoxazepin-4(5H)-yl}carbonyl)piperidine-4-carbonitrile] | 6.70 to 7.12 | ≥ 7.30 |
| O=C(N1CCC(C(F)F)CC1)N1CCOc2ccc(-c3ccc(-c4ncc[nH]4)cc3)cc2C1 [Compound 62, 4-{[4-(difluoromethyl)piperidin-1-yl]carbonyl}-7-[4-(1H-imidazol-2-yl)phenyl]-2,3,4,5-tetrahydro-1,4-benzoxazepine] | 6.70 to 7.12 | ≥ 7.30 |
| N#CC1CCN(C(=O)N2CCOc3ccc(-c4ccc(-c5ncc[nH]5)nc4)cc3C2)CC1 [Compound 63, 1-({7-[6-(1H-imidazol-2-yl)pyridin-3-yl]-2,3-dihydro-1,4-benzoxazepin-4(5H)-yl}carbonyl)piperidine-4-carbonitrile] | 6.00 to 6.30 | 6.60 to 7.30 |
| O=C1CCN(C(=O)N2CCOc3ccc(-c4ccc(C(=O)NCC(F)F)cc4)cc3C2)C(c2cccc(F)c2)C1 (centres unmarked) [Compound 64, N-(2,2-difluoroethyl)-4-(4-{[2-(3-fluorophenyl)-4-oxopiperidin-1-yl]carbonyl}-2,3,4,5-tetrahydro-1,4-benzoxazepin-7-yl)benzamide] | 6.00 to 6.30 | 6.60 to 7.30 |
| Cc1nc2ccc(-c3ccc4c(c3)CN(C(=O)N3CCCC[C@@H]3c3ccccc3)CCO4)cc2[nH]1 [Compound 66, 7-(2-methyl-1H-benzimidazol-6-yl)-4-{[(2R)-2-phenylpiperidin-l-yl]carbonyl}-2,3,4,5-tetrahydro-1,4-benzoxazepine] | ≥ 7.12 | ≥ 7.30 |
| Cc1nc2ccc(-c3ccc4c(c3)CN(C(=O)N3CCC(F)(F)CC3)CCO4)cc2[nH]1 [Compound 67, 4-[(4,4-difluoropiperidin-1-yl)carbonyl]-7-(2-methyl-1H-benzimidazol-6-yl)-2,3,4,5-tetrahydro-1,4-benzoxazepine] | 5.52 to 6.00 | 6.15 to 6.60 |
| Cc1nc2ccc(-c3ccc4c(c3)CN(C(=O)N3CCC(Cc5ccc(Cl)cc5)CC3)CCO4)cc2[nH]1 [Compound 69, 4-({4-[(4-chlorophenyl)methyl]piperidin-1-yl}carbonyl)-7-(2-methyl-1H-benzimidazol-6-yl)-2,3,4,5-tetrahydro-1,4-benzoxazepine] | 5.52 to 6.00 | 6.60 to 7.30 |
| Cc1nc2ccc(-c3ccc4c(c3)CN(C(=O)N3CCC(Oc5ccc(Cl)cc5)CC3)CCO4)cc2[nH]1 [Compound 70, 4-({4-[(4-chlorophenyl)oxy]piperidin-1-yl}carbonyl)-7-(2-methyl-1H-benzimidazol-6-yl)-2,3,4,5-tetrahydro-1,4-benzoxazepine] | 5.52 to 6.00 | 6.60 to 7.30 |
| Cc1nc2ccc(-c3ccc4c(c3)CN(C(=O)N3CCCCC3c3ccc(F)cc3)CCO4)cc2[nH]1 (centres unmarked) [Compound 73, 4-{[2-(4-fluorophenyl)piperidin-1-yl]carbonyl}-7-(2-methyl-1H-benzimidazol-6-yl)-2,3,4,5-tetrahydro-1,4-benzoxazepine] | ≥ 7.12 | ≥ 7.30 |
| Cc1nc2ccc(-c3ccc4c(c3)CN(C(=O)N3CCCCC3c3cccc(F)c3)CCO4)cc2[nH]1 (centres unmarked) [Compound 81, 4-{[2-(3-fluorophenyl)piperidin-1-yl]carbonyl}-7-(2-methyl-1H-benzimidazol-6-yl)-2,3,4,5-tetrahydro-1,4-benzoxazepine] | ≥ 7.12 | ≥ 7.30 |
| Cc1nc2ccc(-c3ccc4c(c3)CN(C(=O)N3CCCc5ccccc53)CCO4)cc2[nH]1 [Compound 85, 4-(3,4-dihydroquinolin-1(2H)-ylcarbonyl)-7-(2-methyl-1H-benzimidazol-6-yl)-2,3,4,5-tetrahydro-1,4-benzoxazepine] | 5.52 to 6.00 | 6.60 to 7.30 |
| Cc1nc2ccc(-c3ccc4c(c3)CN(C(=O)N3CCCCCC3)CCO4)cc2[nH]1 [Compound 89, 4-(azepan-1-ylcarbonyl)-7-(2-methyl-1H-benzimidazol-6-yl)-2,3,4,5-tetrahydro-1,4-benzoxazepine] | 6.00 to 6.30 | 6.15 to 6.60 |
| Cc1nc2cc(-c3ccc4c(c3)CN(C(=O)N3C[C@H]5CC(C)C[C@H]5C3)CCO4)ccc2[nH]1 (stereo partly drawn) [Compound 90, 7-(2-methyl-1H-benzimidazol-5-yl)-4-{[(3aR,6aS)-5-methylhexahydrocyclopenta[c]pyrrol-2(1H)-yl]carbonyl}-2,3,4,5-tetrahydro-1,4-benzoxazepine] | 6.30 to 6.70 | 6.60 to 7.30 |
| Cc1nc2ccc(-c3ccc4c(c3)CN(C(=O)N(C)Cc3ccccc3)CCO4)cc2[nH]1 [Compound 92, N-methyl-7-(2-methyl-1H-benzimidazol-6-yl)-N-(phenylmethyl)-2,3-dihydro-1,4-benzoxazepine-4(5H)-carboxamide] | 6.00 to 6.30 | 6.60 to 7.30 |
| Cc1nc2ccc(-c3ccc4c(c3)CN(C(=O)N(C)CCc3ccccc3)CCO4)cc2[nH]1 [Compound 93, N-methyl-7-(2-methyl-1H-benzimidazol-6-yl)-N-(2-phenylethyl)-2,3-dihydro-1,4-benzoxazepine-4(5H)-carboxamide] | 5.52 to 6.00 | 5.59 to 6.15 |
| Cc1nc2ccc(-c3ccc4c(c3)CN(C(=O)N3CCCC3Cc3ccccc3)CCO4)cc2[nH]1 (centres unmarked) [Compound 94, 7-(2-methyl-1H-benzimidazol-6-yl)-4-{[2-(phenylmethyl)pyrrolidin-1-yl]carbonyl}-2,3,4,5-tetrahydro-1,4-benzoxazepine] | 5.52 to 6.00 | 6.60 to 7.30 |
| Cc1nc2ccc(-c3ccc4c(c3)CN(C(=O)N3CCCC3c3ccccc3)CCO4)cc2[nH]1 (centres unmarked) [Compound 95, 7-(2-methyl-1H-benzimidazol-6-yl)-4-[(2-phenylpyrrolidin-1-yl)carbonyl]-2,3,4,5-tetrahydro-1,4-benzoxazepine] | 6.00 to 6.30 | 6.60 to 7.30 |

Continued, values first:

| pIC50 (PI3Kα) | pIC50 (mTORC1 (mTOR/GbL/Raptor)) | Structure (SMILES) |
| --- | --- | --- |
| 5.52 to 6.00 | 6.15 to 6.60 | Cc1nc2ccc(-c3ccc4c(c3)CN(C(=O)N3CCC(O)CC3)CCO4)cc2[nH]1 [Compound 68, 1-{[7-(2-methyl-1H-benzimidazol-6-yl)-2,3-dihydro-1,4-benzoxazepin-4(5H)-yl]carbonyl}piperidin-4-ol] |
| 6.30 to 6.70 | 6.60 to 7.30 | CCC1CCCN(C(=O)N2CCOc3ccc(-c4ccc5nc(C)[nH]c5c4)cc3C2)C1 (centres unmarked) [Compound 72, 4-[(3-ethylpiperidin-1-yl)carbonyl]-7-(2-methyl-1H-benzimidazol-6-yl)-2,3,4,5-tetrahydro-1,4-benzoxazepine] |
| 5.52 to 6.00 | 6.15 to 6.60 | CCOC(=O)[C@H]1CCCN(C(=O)N2CCOc3ccc(-c4ccc5nc(C)[nH]c5c4)cc3C2)C1 [Compound 74, ethyl (3S)-1-{[7-(2-methyl-1H-benzimidazol-6-yl)-2,3-dihydro-1,4-benzoxazepin-4(5H)-yl]carbonyl}piperidine-3-carboxylate] |
| 5.52 to 6.00 | 5.59 to 6.15 | CCOC(=O)C1CCCCN1C(=O)N1CCOc2ccc(-c3ccc4nc(C)[nH]c4c3)cc2C1 (centres unmarked) [Compound 75, ethyl 1-{[7-(2-methyl-1H-benzimidazol-6-yl)-2,3-dihydro-1,4-benzoxazepin-4(5H)-yl]carbonyl}piperidine-2-carboxylate] |
| 6.30 to 6.70 | 6.60 to 7.30 | CCC1CCC(C)N(C(=O)N2CCOc3ccc(-c4ccc5nc(C)[nH]c5c4)cc3C2)C1 (centres unmarked) [Compound 76, 4-[(5-ethyl-2-methylpiperidin-1-yl)carbonyl]-7-(2-methyl-1H-benzimidazol-6-yl)-2,3,4,5-tetrahydro-1,4-benzoxazepine] |
| 6.00 to 6.30 | 6.60 to 7.30 | Cc1nc2ccc(-c3ccc4c(c3)CN(C(=O)N3CCC(C)(O)CC3)CCO4)cc2[nH]1 [Compound 79, 4-methyl-1-{[7-(2-methyl-1H-benzimidazol-6-yl)-2,3-dihydro-1,4-benzoxazepin-4(5H)-yl]carbonyl}piperidin-4-ol] |
| 5.52 to 6.00 | 6.60 to 7.30 | Cc1nc2ccc(-c3ccc4c(c3)CN(C(=O)N3CCC(C)(F)CC3)CCO4)cc2[nH]1 [Compound 83, 4-[(4-fluoro-4-methylpiperidin-1-yl)carbonyl]-7-(2-methyl-1H-benzimidazol-6-yl)-2,3,4,5-tetrahydro-1,4-benzoxazepine] |
| 6.30 to 6.70 | 6.60 to 7.30 | Cc1nc2ccc(-c3ccc4c(c3)CN(C(=O)N3CC5CCCC5C3)CCO4)cc2[nH]1 (centres unmarked) [Compound 84, 4-(hexahydrocyclopenta[c]pyrrol-2(1H)-ylcarbonyl)-7-(2-methyl-1H-benzimidazol-6-yl)-2,3,4,5-tetrahydro-1,4-benzoxazepine] |
| 6.30 to 6.70 | 6.15 to 6.60 | Cc1nc2ccc(-c3ccc4c(c3)CN(C(=O)N3CCCCC3)CCO4)cc2[nH]1 [Compound 86, 7-(2-methyl-1H-benzimidazol-6-yl)-4-(piperidin-1-ylcarbonyl)-2,3,4,5-tetrahydro-1,4-benzoxazepine] |
| 6.30 to 6.70 | 6.15 to 6.60 | Cc1nc2ccc(-c3ccc4c(c3)CN(C(=O)N3CCCC(C)C3)CCO4)cc2[nH]1 (centres unmarked) [Compound 88, 7-(2-methyl-1H-benzimidazol-6-yl)-4-[(3-methylpiperidin-1-yl)carbonyl]-2,3,4,5-tetrahydro-1,4-benzoxazepine] |
